Assay in all cases: biochemical
Design in all cases: thermal shift assay (real-time PCR machine), melting temperature shift of recombinant bromodomains at 2 uM protein

In test [1] the target is T1, BRD3(2) (Homo sapiens, UniProt Q15059).
T1 construct: bromodomain 2
How it is done:
(§1) The recombinant bromodomains at 2 μM were mixed with 10 μM inhibitors. The assays and data evaluation for melting temperatures were performed using a Real-Time PCR Mx3005p machine (Stratagene) and the protocols previously described. Experiments profiling the final compound (PNZ5) were performed in quadruplicates. […] Since its discovery in our own labs, similar inhibitors have also been disclosed by researchers at Boehringer Ingelheim [reference: patent, WO 2014/154760 [31]]. The inhibitor contains two possible acetyl-lysine mimetic moieties. In order to obtain molecular insights on the interaction of the developed inhibitor, the crystal structure of the first bromodomain of BRD4 in complex with PNZ5 was solved at 1.85 Å (Figure 2C and Supplementary Table 4, 5FBX.pdb). The inhibitor, coordinating residues and water molecules were well defined by the electron density. The dimethylisoxazole moiety mimicked the acetyl lysine side chain and formed two canonical hydrogen-bond interactions with Asn140 and water mediated hydrogen-bond with Tyr 97 (Figure 2C). The common network of waters within the binding site was also conserved in the BRD4(1)-PNZ5 complex. The compound was further stabilized by lipophilic interactions with residues forming the binding site Leu92, Leu94, Ile146. The [compound left out] substituent was well accommodated next to the WPF shelf, as well as the N1-methyl substituent that formed hydrophobic interactions with Trp81. The carbonyl on the isoindolinone established a water-mediated hydrogen bond with Lys91.

Test [2] concerns the target T2, BRD2(2) (Homo sapiens, UniProt P25440).
T2 construct: bromodomain 2
How it is done: as §1

Test [3] has as its target T3, BRD3(1) (Homo sapiens, UniProt Q15059).
T3 construct: bromodomain 1
How it is done: as §1

The target in test [4] is T4, TAF1(2) (Homo sapiens, UniProt P21675).
T4 construct: bromodomain 2
As for the experimental part: as §1

The target in test [5] is T5, ASH1L (Homo sapiens, UniProt Q9NR48).
T5 construct: bromodomain
How it is done:
as §1

Test [6] deals with T6, TAF1L(2) (Homo sapiens, UniProt Q8IZX4).
T6 construct: bromodomain 2
As for the experimental part:
as §1

The target of test [7] is T7, BRDT(1) (Homo sapiens, UniProt Q58F21).
T7 construct: bromodomain 1
As for the experimental part: as §1

The target of test [8] is T8, BRD9 (Homo sapiens, UniProt Q9H8M2).
T8 construct: bromodomain
As for the experimental part:
as §1

Test [9] concerns the target T9, TIF1-bromo (Homo sapiens, UniProt O15164).
T9 construct: gene TRIM24; bromodomain
How it is done: as §1

Test [10] deals with T10, SMARCA4 (Homo sapiens, UniProt P51532).
T10 construct: bromodomain
As for the experimental part:
as §1

Test [11] concerns the target T11, TAF1(1) (Homo sapiens, UniProt P21675).
T11 construct: bromodomain 1
How it is done:
as §1

The target of test [12] is T12, PHIP(2) (Homo sapiens, UniProt Q8WWQ0).
T12 construct: bromodomain 2
How it is done: as §1

For test [13], the target named is T13, TRIM28 (Homo sapiens, UniProt Q13263).
T13 construct: bromodomain
As for the experimental part:
as §1

Test [14] has as its target T14, BRWD3(2) (Homo sapiens, UniProt Q6RI45).
T14 construct: bromodomain 2
As for the experimental part:
as §1

For test [15], the target named is T15, ATAD2 (Homo sapiens, UniProt Q6PL18).
T15 construct: bromodomain
As for the experimental part:
as §1

Test [16] deals with T16, BAZ2A (Homo sapiens, UniProt Q9UIF9).
T16 construct: bromodomain
T16 sequence (Q9UIF9 whole entry): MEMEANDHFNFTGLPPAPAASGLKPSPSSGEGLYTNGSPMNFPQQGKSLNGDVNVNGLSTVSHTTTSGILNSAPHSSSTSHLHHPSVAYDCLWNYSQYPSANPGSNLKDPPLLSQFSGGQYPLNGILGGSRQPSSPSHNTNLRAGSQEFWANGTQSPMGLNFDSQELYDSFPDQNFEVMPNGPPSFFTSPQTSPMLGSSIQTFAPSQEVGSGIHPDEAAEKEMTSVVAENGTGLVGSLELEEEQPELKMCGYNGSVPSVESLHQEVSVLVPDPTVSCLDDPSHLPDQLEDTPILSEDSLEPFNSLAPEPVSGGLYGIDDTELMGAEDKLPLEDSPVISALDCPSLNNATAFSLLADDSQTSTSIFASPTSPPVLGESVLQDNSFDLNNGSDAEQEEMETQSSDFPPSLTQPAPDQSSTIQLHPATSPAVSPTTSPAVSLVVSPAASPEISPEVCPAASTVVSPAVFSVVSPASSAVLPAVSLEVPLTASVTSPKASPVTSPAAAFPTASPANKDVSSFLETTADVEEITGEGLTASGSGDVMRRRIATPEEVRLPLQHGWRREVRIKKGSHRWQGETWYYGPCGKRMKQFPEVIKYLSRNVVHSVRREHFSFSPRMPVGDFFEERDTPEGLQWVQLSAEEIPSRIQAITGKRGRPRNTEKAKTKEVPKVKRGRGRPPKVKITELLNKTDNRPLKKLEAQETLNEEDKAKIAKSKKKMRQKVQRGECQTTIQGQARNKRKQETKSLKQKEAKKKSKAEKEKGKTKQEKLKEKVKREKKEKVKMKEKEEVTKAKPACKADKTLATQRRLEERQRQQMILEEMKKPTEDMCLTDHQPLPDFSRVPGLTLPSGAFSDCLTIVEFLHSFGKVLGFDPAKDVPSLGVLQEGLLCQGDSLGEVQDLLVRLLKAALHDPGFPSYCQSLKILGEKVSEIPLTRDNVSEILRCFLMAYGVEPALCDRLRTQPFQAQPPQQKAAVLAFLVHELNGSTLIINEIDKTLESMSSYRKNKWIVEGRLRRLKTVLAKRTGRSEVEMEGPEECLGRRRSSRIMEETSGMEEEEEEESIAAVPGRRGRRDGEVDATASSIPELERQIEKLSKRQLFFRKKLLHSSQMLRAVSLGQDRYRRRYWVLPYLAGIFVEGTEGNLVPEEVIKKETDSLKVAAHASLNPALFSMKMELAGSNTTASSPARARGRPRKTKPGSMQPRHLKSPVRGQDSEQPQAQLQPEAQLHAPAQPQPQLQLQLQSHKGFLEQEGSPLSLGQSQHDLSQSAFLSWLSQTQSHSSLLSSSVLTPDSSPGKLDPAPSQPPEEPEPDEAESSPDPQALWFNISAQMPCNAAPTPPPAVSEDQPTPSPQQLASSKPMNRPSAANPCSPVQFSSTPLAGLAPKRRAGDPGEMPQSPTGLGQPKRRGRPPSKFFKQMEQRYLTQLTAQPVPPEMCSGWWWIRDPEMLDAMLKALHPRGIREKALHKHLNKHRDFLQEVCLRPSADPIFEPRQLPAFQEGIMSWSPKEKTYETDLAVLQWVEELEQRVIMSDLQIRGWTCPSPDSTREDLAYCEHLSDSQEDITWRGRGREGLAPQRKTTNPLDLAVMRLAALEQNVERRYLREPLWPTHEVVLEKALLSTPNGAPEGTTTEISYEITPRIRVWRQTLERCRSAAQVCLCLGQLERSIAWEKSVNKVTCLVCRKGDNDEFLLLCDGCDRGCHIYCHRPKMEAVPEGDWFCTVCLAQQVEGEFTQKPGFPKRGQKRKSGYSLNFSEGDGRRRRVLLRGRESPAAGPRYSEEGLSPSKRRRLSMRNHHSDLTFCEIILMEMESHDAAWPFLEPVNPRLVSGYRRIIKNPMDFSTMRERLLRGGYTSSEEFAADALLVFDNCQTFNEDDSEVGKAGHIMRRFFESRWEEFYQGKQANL
As for the experimental part: as §1

Test [17] deals with T17, PB1(4) (Homo sapiens, UniProt Q86U86).
T17 construct: gene PBRM1; bromodomain 4
How it is done: as §1

The target in test [18] is T18, BAZ1B (Homo sapiens, UniProt Q9UIG0).
T18 construct: bromodomain
How it is done:
as §1

Test [19] has as its target T19, MLL (Homo sapiens, UniProt Q03164).
T19 construct: gene KMT2A; bromodomain
As for the experimental part: as §1

Test [20] concerns the target T20, EP300 (Homo sapiens, UniProt Q09472).
T20 construct: bromodomain
How it is done:
as §1

Molecules are shown by their SMILES.

T2 sequence (P25440 whole entry): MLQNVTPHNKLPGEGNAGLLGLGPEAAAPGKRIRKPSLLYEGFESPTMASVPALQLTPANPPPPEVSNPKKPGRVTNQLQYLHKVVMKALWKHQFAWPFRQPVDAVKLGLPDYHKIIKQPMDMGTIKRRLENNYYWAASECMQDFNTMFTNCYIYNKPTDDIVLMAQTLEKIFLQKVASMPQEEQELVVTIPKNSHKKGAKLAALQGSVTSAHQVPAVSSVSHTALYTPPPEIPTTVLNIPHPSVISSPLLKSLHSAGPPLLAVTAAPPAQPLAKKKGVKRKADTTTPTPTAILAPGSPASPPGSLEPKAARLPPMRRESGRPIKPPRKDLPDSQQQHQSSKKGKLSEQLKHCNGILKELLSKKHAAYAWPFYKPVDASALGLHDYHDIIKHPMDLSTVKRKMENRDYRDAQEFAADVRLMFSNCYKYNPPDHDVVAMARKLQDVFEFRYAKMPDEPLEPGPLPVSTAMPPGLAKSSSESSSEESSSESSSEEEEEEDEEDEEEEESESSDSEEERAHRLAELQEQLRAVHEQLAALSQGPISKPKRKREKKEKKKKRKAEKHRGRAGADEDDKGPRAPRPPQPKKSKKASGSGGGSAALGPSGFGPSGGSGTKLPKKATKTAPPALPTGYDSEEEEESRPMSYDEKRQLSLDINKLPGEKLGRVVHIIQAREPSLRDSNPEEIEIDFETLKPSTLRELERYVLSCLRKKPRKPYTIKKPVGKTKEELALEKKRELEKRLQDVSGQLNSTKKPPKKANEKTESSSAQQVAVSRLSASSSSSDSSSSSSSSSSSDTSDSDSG
T20 sequence (Q09472 whole entry): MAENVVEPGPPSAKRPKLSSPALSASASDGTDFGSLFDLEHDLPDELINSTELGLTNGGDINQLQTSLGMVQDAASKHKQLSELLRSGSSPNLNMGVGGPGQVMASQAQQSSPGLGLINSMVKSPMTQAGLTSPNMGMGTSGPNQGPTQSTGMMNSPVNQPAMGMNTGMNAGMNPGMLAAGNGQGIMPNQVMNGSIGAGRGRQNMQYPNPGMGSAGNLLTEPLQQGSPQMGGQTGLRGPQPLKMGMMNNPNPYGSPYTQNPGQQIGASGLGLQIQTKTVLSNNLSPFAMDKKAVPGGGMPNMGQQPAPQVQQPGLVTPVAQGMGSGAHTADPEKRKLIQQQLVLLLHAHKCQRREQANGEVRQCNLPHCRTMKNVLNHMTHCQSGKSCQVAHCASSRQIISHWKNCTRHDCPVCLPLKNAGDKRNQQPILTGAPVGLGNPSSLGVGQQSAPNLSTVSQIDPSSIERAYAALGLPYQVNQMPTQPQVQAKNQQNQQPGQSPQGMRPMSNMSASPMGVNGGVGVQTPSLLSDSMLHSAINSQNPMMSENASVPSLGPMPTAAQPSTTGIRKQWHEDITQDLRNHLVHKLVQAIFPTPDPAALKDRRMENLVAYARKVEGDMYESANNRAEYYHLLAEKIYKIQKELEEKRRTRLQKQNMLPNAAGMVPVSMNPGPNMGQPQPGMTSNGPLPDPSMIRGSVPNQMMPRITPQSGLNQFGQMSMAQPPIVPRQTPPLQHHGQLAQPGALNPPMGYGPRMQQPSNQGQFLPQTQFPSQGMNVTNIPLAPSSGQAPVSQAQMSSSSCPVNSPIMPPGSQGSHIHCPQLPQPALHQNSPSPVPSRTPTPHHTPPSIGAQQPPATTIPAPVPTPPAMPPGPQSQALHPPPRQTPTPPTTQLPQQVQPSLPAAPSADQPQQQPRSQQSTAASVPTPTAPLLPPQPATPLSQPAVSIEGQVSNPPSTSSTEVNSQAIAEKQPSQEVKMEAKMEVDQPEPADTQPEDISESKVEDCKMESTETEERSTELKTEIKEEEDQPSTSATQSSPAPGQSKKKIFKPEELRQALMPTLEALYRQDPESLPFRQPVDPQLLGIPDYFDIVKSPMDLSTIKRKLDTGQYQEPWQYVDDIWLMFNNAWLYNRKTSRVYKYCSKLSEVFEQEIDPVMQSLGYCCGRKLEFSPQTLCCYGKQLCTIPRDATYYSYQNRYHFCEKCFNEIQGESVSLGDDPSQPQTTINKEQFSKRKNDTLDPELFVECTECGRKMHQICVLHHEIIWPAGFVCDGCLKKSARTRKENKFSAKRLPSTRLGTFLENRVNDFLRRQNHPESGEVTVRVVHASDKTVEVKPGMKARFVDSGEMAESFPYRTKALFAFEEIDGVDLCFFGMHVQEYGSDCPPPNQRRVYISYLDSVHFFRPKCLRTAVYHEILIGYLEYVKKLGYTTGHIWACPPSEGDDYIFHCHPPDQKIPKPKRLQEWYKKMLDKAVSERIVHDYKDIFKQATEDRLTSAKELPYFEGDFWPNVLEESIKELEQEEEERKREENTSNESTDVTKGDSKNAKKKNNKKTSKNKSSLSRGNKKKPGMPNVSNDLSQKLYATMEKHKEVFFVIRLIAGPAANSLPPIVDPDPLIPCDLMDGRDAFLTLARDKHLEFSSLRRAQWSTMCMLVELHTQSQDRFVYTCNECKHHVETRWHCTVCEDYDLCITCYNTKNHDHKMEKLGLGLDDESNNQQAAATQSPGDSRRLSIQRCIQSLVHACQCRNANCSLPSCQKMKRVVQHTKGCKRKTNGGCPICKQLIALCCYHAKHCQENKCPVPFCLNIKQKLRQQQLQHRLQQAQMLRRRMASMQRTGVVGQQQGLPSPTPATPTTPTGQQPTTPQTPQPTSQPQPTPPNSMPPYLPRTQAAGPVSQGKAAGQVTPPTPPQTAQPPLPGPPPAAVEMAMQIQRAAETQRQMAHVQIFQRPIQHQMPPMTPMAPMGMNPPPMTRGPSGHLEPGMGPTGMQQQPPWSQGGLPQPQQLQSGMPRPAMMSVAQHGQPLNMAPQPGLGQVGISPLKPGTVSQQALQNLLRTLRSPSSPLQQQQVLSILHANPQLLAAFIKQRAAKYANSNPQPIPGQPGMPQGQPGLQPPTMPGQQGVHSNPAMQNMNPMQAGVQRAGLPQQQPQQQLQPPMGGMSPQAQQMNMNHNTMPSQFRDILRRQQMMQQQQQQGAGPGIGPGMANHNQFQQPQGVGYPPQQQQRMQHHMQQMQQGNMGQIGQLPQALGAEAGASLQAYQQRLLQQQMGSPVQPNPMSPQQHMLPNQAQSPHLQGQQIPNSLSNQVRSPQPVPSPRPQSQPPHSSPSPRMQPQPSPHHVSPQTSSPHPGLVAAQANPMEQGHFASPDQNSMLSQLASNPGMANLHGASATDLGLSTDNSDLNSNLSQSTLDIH

With `Cc1noc(C)c1-c1ccc2c(c1)[C@H](c1ccccc1)N(C)C2=O` [PNZ5], the ΔTm at 10 µM in [1] is 9.54 °C; in [2], 8.13 °C; in test [3], 9.79 °C; in test [4], 0.19 °C; in test [5], 0.41 °C; in test [6] it was 0.51 °C. For the same compound, the ΔTm at 10 µM in test [7] is 6.19 °C; in [8], 1.85 °C; in [9] it was 0.86 °C; in test [10], 0.04 °C; in test [11], 0.09 °C; in test [12] it was 0.22 °C. Also, the ΔTm at 10 µM in test [13] was -0.11 °C; in test [14] it was 0.74 °C; in [15], 0.13 °C; in test [16] it was 0.32 °C; in test [17], 0.36 °C; in test [18], 1.67 °C. In addition, the figures for the ΔTm at 10 µM in test [19] and in [20] were 0.49 °C and 2.49 °C, respectively.

These data come from PMC5190074, “BET inhibition as a new strategy for the treatment of gastric cancer” (Oncotarget, 2016).
